In paper PMC7523345 (Investigational new drugs, 2018):

Test: Phase I dose escalation study: safety, tolerability, DLT and MTD
Format: in vivo

Cc1cccc2c1NC(=O)[C@@H](NC(=O)[C@H](CCC(F)(F)F)[C@H](CCC(F)(F)F)C(N)=O)N=C2c1cccc(F)c1 [BMS-986115]
0: No. of patients with DLTs (Arm A QD 0.3 mg, 2 DLT evaluable patients)
0 n (%): Fatigue (drug related AE, Grade 3 and 4) (Arm A QD 0.3 mg (N = 2)) | Fatigue (drug related AE, all grades) (Arm A QD 0.3 mg (N = 2)) | Flatulence (drug related AE, all grades) (Arm A QD 0.3 mg (N = 2)) | Hypocalcaemia (drug related AE, Grade 3 and 4) (Arm A QD 0.3 mg (N = 2)) | Hypocalcaemia (drug related AE, all grades) (Arm A QD 0.3 mg (N = 2)) | Hypokalaemia (drug related AE, Grade 3 and 4) (Arm A QD 0.3 mg (N = 2)) | Hypokalaemia (drug related AE, all grades) (Arm A QD 0.3 mg (N = 2)) | Hyponatraemia (drug related AE, Grade 3 and 4) (Arm A QD 0.3 mg (N = 2)) | Hyponatraemia (drug related AE, all grades) (Arm A QD 0.3 mg (N = 2)) | Ileus (drug related AE, Grade 3 and 4) (Arm A QD 0.3 mg (N = 2)) | Increased upper airway secretion (drug related AE, all grades) (Arm A QD 0.3 mg (N = 2)) | Laryngeal pain (drug related AE, all grades) (Arm A QD 0.3 mg (N = 2)) | Leucocytosis (drug related AE, Grade 3 and 4) (Arm A QD 0.3 mg (N = 2)) | Mouth ulceration (drug related AE, all grades) (Arm A QD 0.3 mg (N = 2)) | Nausea (drug related AE, Grade 3 and 4) (Arm A QD 0.3 mg (N = 2)) | Nausea (drug related AE, all grades) (Arm A QD 0.3 mg (N = 2)) | Pruritus (drug related AE, Grade 3 and 4) (Arm A QD 0.3 mg (N = 2)) | Pulmonary embolism (drug related AE, Grade 3 and 4) (Arm A QD 0.3 mg (N = 2)) | Rash maculopapular (drug related AE, all grades) (Arm A QD 0.3 mg (N = 2)) | Urticaria (drug related AE, Grade 3 and 4) (Arm A QD 0.3 mg (N = 2)) | Vision blurred (drug related AE, all grades) (Arm A QD 0.3 mg (N = 2)) | Vomiting (drug related AE, Grade 3 and 4) (Arm A QD 0.3 mg (N = 2)) | Vomiting (drug related AE, all grades) (Arm A QD 0.3 mg (N = 2)) | Weight decreased (drug related AE, all grades) (Arm A QD 0.3 mg (N = 2)) | Abdominal distension (drug related AE, all grades) (Arm A QD 0.6 mg (N = 2)) | Abdominal pain (drug related AE, Grade 3 and 4) (Arm A QD 0.6 mg (N = 2)) | Abdominal pain (drug related AE, all grades) (Arm A QD 0.6 mg (N = 2)) | Blood creatinine increased (drug related AE, all grades) (Arm A QD 0.6 mg (N = 2)) | Colitis (drug related AE, Grade 3 and 4) (Arm A QD 0.6 mg (N = 2)) | Cough (drug related AE, Grade 3 and 4) (Arm A QD 0.6 mg (N = 2)) | Cough (drug related AE, all grades) (Arm A QD 0.6 mg (N = 2)) | Decreased Appetite (drug related AE, Grade 3 and 4) (Arm A QD 0.6 mg (N = 2)) | Decreased Appetite (drug related AE, all grades) (Arm A QD 0.6 mg (N = 2)) | Dehydration (drug related AE, Grade 3 and 4) (Arm A QD 0.6 mg (N = 2)) | Dehydration (drug related AE, all grades) (Arm A QD 0.6 mg (N = 2)) | Dermatitis acneiform (drug related AE, all grades) (Arm A QD 0.6 mg (N = 2)) | Diarrhoea (drug related AE, Grade 3 and 4) (Arm A QD 0.6 mg (N = 2)) | Dry mouth (drug related AE, all grades) (Arm A QD 0.6 mg (N = 2)) | Dry skin (drug related AE, all grades) (Arm A QD 0.6 mg (N = 2)) | Dysgeusia (drug related AE, all grades) (Arm A QD 0.6 mg (N = 2)) | Dyspepsia (drug related AE, all grades) (Arm A QD 0.6 mg (N = 2)) | Dysphonia (drug related AE, all grades) (Arm A QD 0.6 mg (N = 2)) | Fatigue (drug related AE, Grade 3 and 4) (Arm A QD 0.6 mg (N = 2)) | Fatigue (drug related AE, all grades) (Arm A QD 0.6 mg (N = 2)) | Flatulence (drug related AE, all grades) (Arm A QD 0.6 mg (N = 2)) | Hypocalcaemia (drug related AE, Grade 3 and 4) (Arm A QD 0.6 mg (N = 2)) | Hypocalcaemia (drug related AE, all grades) (Arm A QD 0.6 mg (N = 2)) | Hypokalaemia (drug related AE, Grade 3 and 4) (Arm A QD 0.6 mg (N = 2)) | Hypokalaemia (drug related AE, all grades) (Arm A QD 0.6 mg (N = 2)) | Hyponatraemia (drug related AE, Grade 3 and 4) (Arm A QD 0.6 mg (N = 2)) | Hyponatraemia (drug related AE, all grades) (Arm A QD 0.6 mg (N = 2)) | Hypophosphataemia (drug related AE, Grade 3 and 4) (Arm A QD 0.6 mg (N = 2)) | Ileus (drug related AE, Grade 3 and 4) (Arm A QD 0.6 mg (N = 2)) | Increased upper airway secretion (drug related AE, all grades) (Arm A QD 0.6 mg (N = 2)) | Laryngeal pain (drug related AE, all grades) (Arm A QD 0.6 mg (N = 2)) | Leucocytosis (drug related AE, Grade 3 and 4) (Arm A QD 0.6 mg (N = 2)) | Mouth ulceration (drug related AE, all grades) (Arm A QD 0.6 mg (N = 2)) | Nausea (drug related AE, Grade 3 and 4) (Arm A QD 0.6 mg (N = 2)) | Pruritus (drug related AE, Grade 3 and 4) (Arm A QD 0.6 mg (N = 2)) | Pruritus (drug related AE, all grades) (Arm A QD 0.6 mg (N = 2)) | Pulmonary embolism (drug related AE, Grade 3 and 4) (Arm A QD 0.6 mg (N = 2))
2 (100) n (%): Hypophosphataemia (drug related AE, all grades) (Arm A QD 0.3 mg (N = 2))
1 (50) n (%): Hypophosphataemia (drug related AE, Grade 3 and 4) (Arm A QD 0.3 mg (N = 2)) | Pruritus (drug related AE, all grades) (Arm A QD 0.3 mg (N = 2)) | Rash (drug related AE, all grades) (Arm A QD 0.3 mg (N = 2)) | Sinusitis (drug related AE, all grades) (Arm A QD 0.3 mg (N = 2)) | Diarrhoea (drug related AE, all grades) (Arm A QD 0.6 mg (N = 2)) | Hypophosphataemia (drug related AE, all grades) (Arm A QD 0.6 mg (N = 2)) | Nausea (drug related AE, all grades) (Arm A QD 0.6 mg (N = 2)) | Rash (drug related AE, all grades) (Arm A QD 0.6 mg (N = 2))
